Laboratory results: US7524853B2 (Solvay Pharmaceuticals B.V., priority 2003, dated 2009)

Legend:
Type in all cases: cell-based
[1] = molecular target: T1, 17β-hydroxysteroid dehydrogenase type 1 (17β-HSD type 1) (Homo sapiens, UniProt P14061); test: Inhibition of 17β-HSD type 1 in MCF-7 cells stably expressing the isoenzyme (tritium labeled estrone conversion, HPLC); conditions: MCF-7 cells expressing 17β-HSD type 1, 2 nM tritium labeled estrone; for inhibition at 1 µM / inhibition at 10 µM: MCF7; for inhibition at 1 µM: read-out: % Inhibition HSD1 1 μM; for inhibition at 10 µM: read-out: % Inhibition HSD1 10 μM
T1 construct: expressed in transfected cells; host or cells: MCF-7
T1 sequence (P14061 1-328): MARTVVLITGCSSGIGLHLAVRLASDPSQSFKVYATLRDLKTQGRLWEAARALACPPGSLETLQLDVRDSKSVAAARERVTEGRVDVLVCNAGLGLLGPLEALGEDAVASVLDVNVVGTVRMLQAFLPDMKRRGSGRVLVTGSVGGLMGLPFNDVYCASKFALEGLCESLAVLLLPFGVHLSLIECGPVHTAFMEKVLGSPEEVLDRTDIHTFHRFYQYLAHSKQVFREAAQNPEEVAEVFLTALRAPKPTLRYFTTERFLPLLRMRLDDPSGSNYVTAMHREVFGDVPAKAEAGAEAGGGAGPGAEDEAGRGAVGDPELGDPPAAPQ
Text: (§1) Biological Testing Materials and Methods 1. Inhibition of the 17β-hydroxysteroid dehydrocienase type 1, type 2 and type 3 enzyme
(§2) The compounds were screened in respect of 17β-HSD enzyme activity in vitro on established MCF-7 cell lines, each stably expressing one of the respective 17β-HSD isoenzymes. The interconversion of substrate by each isoenzyme and the 17β-HSD inhibiting activity of chemical compounds in these cell lines were detected by HPLC system.
(§3) Varying amounts of the test compounds were incubated in the growth medium of the 17β-HSD expressing cells together tritium labeled substrate (2 nM estrone for 17β-HSD type 1; 2 nM estradiol for 17β-HSD type 2; and 2 nM androstenedione for 17β-HSD type 3). The medium samples were removed after exact incubation time and the reaction is stopped by trichloroacetic acid (TCA). The samples were analyzed by HPLC-coupled flow scintillation analysis.
(§4) For each enzyme type, the HSD-inhibiting activity of an individual test compound was calculated by comparing the conversion of a control sample without any test compound (referred to as “Negative Control”) to the (reduced) conversion of the test sample containing the particular compound to be tested (referred to as “Test Sample”).
(§5) Two concentrations of each compound were used. The number of the compound refers to the numbers indicated in the Experimental Section.

[2] = molecular target: T2, 17β-hydroxysteroid dehydrogenase type 2 (17β-HSD type 2) (Homo sapiens, UniProt P37059); test: Inhibition of 17β-HSD type 2 in MCF-7 cells stably expressing the isoenzyme (tritium labeled estradiol conversion, HPLC); conditions: MCF-7 cells expressing 17β-HSD type 2, 2 nM tritium labeled estradiol; for inhibition at 1 µM / inhibition at 10 µM: MCF7; for inhibition at 1 µM: read-out: % Inhibition HSD2 1 μM; for inhibition at 10 µM: read-out: % Inhibition HSD2 10 μM
T2 construct: expressed in transfected cells; host or cells: MCF-7
T2 sequence (P37059 1-387): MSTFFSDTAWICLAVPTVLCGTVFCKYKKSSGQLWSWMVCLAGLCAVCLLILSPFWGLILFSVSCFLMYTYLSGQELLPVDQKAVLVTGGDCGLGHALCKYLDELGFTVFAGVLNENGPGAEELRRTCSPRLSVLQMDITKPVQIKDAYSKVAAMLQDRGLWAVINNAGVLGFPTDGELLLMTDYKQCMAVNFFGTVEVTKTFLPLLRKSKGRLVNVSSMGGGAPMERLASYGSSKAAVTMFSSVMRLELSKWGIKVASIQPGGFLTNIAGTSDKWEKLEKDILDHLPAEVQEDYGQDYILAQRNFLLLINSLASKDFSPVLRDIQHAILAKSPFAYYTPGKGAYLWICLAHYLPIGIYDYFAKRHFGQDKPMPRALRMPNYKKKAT
Text: as §1, §2, §3, §4, §5

[3] = molecular target: T3, 17β-hydroxysteroid dehydrogenase type 3 (17β-HSD type 3) (Homo sapiens, UniProt P37058); test: Inhibition of 17β-HSD type 3 in MCF-7 cells stably expressing the isoenzyme (tritium labeled androstenedione conversion, HPLC); conditions: MCF-7 cells expressing 17β-HSD type 3, 2 nM tritium labeled androstenedione; for inhibition at 1 µM / inhibition at 10 µM: MCF7; for inhibition at 1 µM: read-out: % Inhibition HSD3 1 μM; for inhibition at 10 µM: read-out: % Inhibition HSD3 10 μM
T3 construct: expressed in transfected cells; host or cells: MCF-7
T3 sequence (P37058 1-310): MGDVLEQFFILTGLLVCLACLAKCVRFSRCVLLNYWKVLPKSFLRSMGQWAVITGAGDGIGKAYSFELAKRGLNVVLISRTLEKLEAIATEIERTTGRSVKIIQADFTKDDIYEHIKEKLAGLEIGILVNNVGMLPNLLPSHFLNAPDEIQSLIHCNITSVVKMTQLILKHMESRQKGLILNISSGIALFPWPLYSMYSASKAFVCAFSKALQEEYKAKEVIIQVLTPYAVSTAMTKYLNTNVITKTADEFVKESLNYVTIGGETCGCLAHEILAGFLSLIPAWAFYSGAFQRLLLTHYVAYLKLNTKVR
Text: as §1, §2, §3, §4, §5

Row | SMILES | inhibition at 1 µM ([1]; 1 μM test compound) [%] | inhibition at 10 µM ([1]; 10 μM test compound) [%] | inhibition at 1 µM ([2]; 1 μM test compound) [%] | inhibition at 10 µM ([2]; 10 μM test compound) [%] | inhibition at 1 µM ([3]; 1 μM test compound) [%] | inhibition at 10 µM ([3]; 10 μM test compound) [%] | % Inhibition HSD1 1 μM ([1]; 1 μM test compound) [%] | % Inhibition HSD1 10 μM ([1]; 10 μM test compound) [%] | % Inhibition HSD2 1 μM ([2]; 1 μM test compound) [%] | % Inhibition HSD2 10 μM ([2]; 10 μM test compound) [%] | % Inhibition HSD3 1 μM ([3]; 1 μM test compound) [%] | % Inhibition HSD3 10 μM ([3]; 10 μM test compound) [%]
1 | O=C(OCCn1c(-c2cccs2)nc2sc3c(c2c1=O)CCC(Br)(Br)C3=O)c1cccs1 [No. 72, Thiophene-2-carboxylic acid 2-(7,7-dibromo-4,8-dioxo-2-thiohen-2-yl-5,6,7,8-tetrahydro-4H-benzo[4,5]thieno[2,3-d]pyrimidin-3-yl)-ethyl ester] | 15.3 | 15.2 | 18 | 53.9 | 16.1 | 64.4 |  |  |  |  |  | 
2 | COc1cccc(-c2nc3sc4c(c3c(=O)n2Cc2ccccc2)CCC(Br)(Br)C4=O)c1 [No. 81, 3-Benzyl-7,7-dibromo-2-(m-methoxyphenyl)-6,7-dihydro-3H,5H-benzo[4,5]thieno[2,3-d]pyrimidine-4,8-dione] | 33.1 | 16.8 | 32.1 | 35.6 | 7.8 | 26.2 |  |  |  |  |  | 
3 | COc1cc(-c2nc3sc4c(OC)cccc4c3c(=O)n2CC(C)C)cc(OC)c1OC [No. 136, 3-Isobutyl-8-methoxy-2-(3,4,5-trimethoxyphenyl)-3H-benzo[4,5]thieno[2,3-d]pyrimidin-4-one] | 3.6 | 8.5 | 23.2 | 8.8 | 3.5 | 11 |  |  |  |  |  | 
4 | COc1cc(-c2nc3sc4c(O)cccc4c3c(=O)n2Cc2ccccc2)c(Cl)c(OC)c1OC [No. 124, 3-Benzyl-2-(2-chloro-3,4,5-trimethoxyphenyl)-8-hydroxy-3H-benzo[4,5]thieno[2,3-d]pyrimidin-4-one] | 40.2 | 73.3 | 0.2 | 17.6 | 8.3 | 42.4 |  |  |  |  |  | 
5 | COc1cc(-c2nc3sc4c(c3c(=O)n2Cc2ccccc2)CCC(Br)C4=O)c(Br)c(OC)c1OC (stereo not drawn) [No. 47, 3-benzyl-7-bromo-2-(2-bromo-3,4,5-trimethoxyphenyl)-6,7-dihydro-3H,5H-benzo[4,5]thieno[2,3-d]pyrimidine-4,8-dione] | 16.1 | 63.2 | 31.9 | 59 | 39.7 | 52.2 |  |  |  |  |  | 
6 | CCC(C)Cn1c(-c2cc(OC)c(OC)c(OC)c2Cl)nc2sc3c(c2c1=O)CCC(Cl)(Cl)C3=O (stereo not drawn) [No. 142, 7,7-Dichloro-2-(2-chloro-3,4,5-trimethoxyphenyl)-3-(2-methylbutyl)-6,7-dihydro-3H,5H-benzo[4,5]thieno[2,3-d]pyrimidine-4,8-dione] | 32.8 | 52.7 | 6.2 | 10.5 | 8 | 24.1 |  |  |  |  |  | 
7 | COc1cc(-c2nc3sc4c(c3c(=O)n2Cc2ccccc2)CC(C)C(Br)C4=O)c(Br)c(OC)c1OC (stereo not drawn) [No. 689, 3-Benzyl-7-bromo-6-methyl-2-(2-bromo-3,4,5-trimethoxyphenyl)-6,7-dihydro-3H-benzo[4,5]thieno[2,3-d]pyrimidin-4,8-dione] | 7.7 | 5.7 | -3 | 5.7 | -2.4 | 17.4 |  |  |  |  |  | 
8 | CCCCn1c(-c2ccccc2OC)nc2sc3c(O)cccc3c2c1=O [No. 633, 3-Butyl-8-hydroxy-2-(2-methoxy-phenyl)-3H-benzo[4,5]thieno[2,3-d]pyrimidin-4-one] | 30.6 | 60.9 | 33.2 | 64.6 | 62.3 | 91.7 |  |  |  |  |  | 
9 | COc1cc(-c2nc3sc4c(Sc5ccccc5)c(C=O)ccc4c3c(=O)n2Cc2ccccc2)cc(OC)c1OC [No. 9, 3-Benzyl-4-oxo-8-phenylsulfanyl-2-(3,4,5-trimethoxyphenyl)-3,4-dihydro-benzo[4,5]thieno[2,3-d]pyrimidine-7-carbaldehyde] | 31.9 | 29.9 | -2.6 | -8.9 | 2.7 | 1.4 |  |  |  |  |  | 
10 | COCc1nc2sc3c(c2c(=O)n1Cc1ccccc1)CCCC3 [No. 27, 3-Benzyl-2-methoxymethyl-5,6,7,8-tetrahydro-3H-benzo[4,5]thieno[2,3-d]pyrimidin-4-one] | 11.2 | 32.3 | 8.5 | 7.2 | -14.4 | 12.2 |  |  |  |  |  | 
11 | CC(=O)OCc1nc2sc3c(c2c(=O)n1-c1ccccc1)CCCC3 [No. 39, Acetic acid 4-oxo-3-phenyl-3,4,5,6,7,8-hexahydro-benzo[4,5]thieno[2,3-d]pyrimidin-2-ylmethyl ester] | 21.1 | 13.2 | 25 | 9.5 | 18.5 | 12.8 |  |  |  |  |  | 
12 | O=c1c2c(nc(-c3ccccc3)n1Cc1ccccc1)sc1c(O)cccc12 [No. 60, 3-Benzyl-8-hydroxy-2-phenyl-3H-benzo[4,5]thieno[2,3-d]pyrimidine-4-one] | 16.3 | 36 | 44.2 | 76.9 | 10 | 45.7 |  |  |  |  |  | 
13 | O=C1c2sc3nc(-c4ccccc4)n(Cc4ccccc4)c(=O)c3c2CCC1(Br)Br [No. 59, 3-Benzyl-7,7-dibromo-2-phenyl-6,7-dihydro-3H,5H-benzo[4,5]thieno[2,3-d]pyrimidine-4,8-dione] | 24 | 20.8 | 36.7 | 40 | 17.6 | 31.7 |  |  |  |  |  | 
14 | CC(=O)OCc1nc2sc3c(c2c(=O)n1Cc1ccccc1)CCCC3 [No. 29, Acetic acid 3-benzyl-4-oxo-3,4,5,6,7,8-hexahydro-benzo[4,5]thieno[2,3-d]pyrimidin-2-ylmethyl ester] | 9 | 15.5 | 8.5 | 21.1 | 16.9 | 28.4 |  |  |  |  |  | 
15 | COCc1nc2sc3c(O)cccc3c2c(=O)n1CCc1ccccc1 [No. 629] |  |  |  |  |  |  | 22.4 | 33.1 | 39.1 | 71.7 | 19.3 | 35.9
